The record followed here is patent US9526721B2, “Tetrahydroprotoberbine compounds and uses thereof in the treatment of neurological, psychiatric and neurodegenerative diseases” (priority 2012, dated 2016).

Each structure is given as a SMILES string.

Broadly, the Ki is the dissociation constant of the complex between target and ligand, obtained from inhibition or displacement. In general, inhibition refers to the drop in the measured response relative to a control, in per cent.

One assay concerns the target T1, 5HT2A (Homo sapiens, UniProt P28223).
T1 construct: host or cells: CHO cells
The assay is described as follows: Receptor binding, 5HT2A. As to conditions: receptor expressed in CHO cells. How it is done: (§1) All receptors tested were heterologously expressed CHO cells and IC50 values were determined by a non-linear, least squares regression analysis using MathIQ (ID Business Solution Ltd, UK). Ki was calculated using the equation of Cheng and Prusoff (1973, Biochem. Pharmacol 22:23099-3108) derived from the observed IC50 of the tested compound, the concentration of radioligand employed in the assay, and the historical values for the Kd of the ligand (obtained experimentally at MDS Pharma Services).
(§2) All receptors were heterologously expressed CHO cells and IC50 values were determined by a non-linear, least squares regression analysis using MathIQ (ID Business Solution Ltd, UK). K1 was calculated (Y. Cheng & Prusoff 1973) from the observed IC50 of the tested compound, the concentration of radioligand employed in the assay, and the historical values for the Kd of the ligand (obtained experimentally at MDS Pharma Services).

In another assay the target is T2, 5HT2C (Homo sapiens, UniProt P28335).
T2 construct: host or cells: CHO cells
T2 sequence (P28335 33-458): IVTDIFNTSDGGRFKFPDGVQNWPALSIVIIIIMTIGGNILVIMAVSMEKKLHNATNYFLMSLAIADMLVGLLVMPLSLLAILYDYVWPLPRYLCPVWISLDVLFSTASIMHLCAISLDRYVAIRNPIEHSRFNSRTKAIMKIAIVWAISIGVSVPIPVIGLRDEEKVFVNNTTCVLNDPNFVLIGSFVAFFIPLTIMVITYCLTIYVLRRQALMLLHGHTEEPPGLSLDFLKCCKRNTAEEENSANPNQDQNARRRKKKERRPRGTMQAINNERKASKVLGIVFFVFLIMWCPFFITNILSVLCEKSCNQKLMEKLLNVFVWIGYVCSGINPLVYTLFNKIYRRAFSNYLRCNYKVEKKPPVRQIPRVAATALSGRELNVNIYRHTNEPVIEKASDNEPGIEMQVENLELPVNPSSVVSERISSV
The assay is described as follows: Receptor binding, 5HT2C. As to conditions: receptor expressed in CHO cells. How it is done: as §1, §2

The target in a further assay is T3, 5HT3 (Homo sapiens, UniProt P46098).
T3 construct: host or cells: CHO cells
T3 sequence (P46098 24-478): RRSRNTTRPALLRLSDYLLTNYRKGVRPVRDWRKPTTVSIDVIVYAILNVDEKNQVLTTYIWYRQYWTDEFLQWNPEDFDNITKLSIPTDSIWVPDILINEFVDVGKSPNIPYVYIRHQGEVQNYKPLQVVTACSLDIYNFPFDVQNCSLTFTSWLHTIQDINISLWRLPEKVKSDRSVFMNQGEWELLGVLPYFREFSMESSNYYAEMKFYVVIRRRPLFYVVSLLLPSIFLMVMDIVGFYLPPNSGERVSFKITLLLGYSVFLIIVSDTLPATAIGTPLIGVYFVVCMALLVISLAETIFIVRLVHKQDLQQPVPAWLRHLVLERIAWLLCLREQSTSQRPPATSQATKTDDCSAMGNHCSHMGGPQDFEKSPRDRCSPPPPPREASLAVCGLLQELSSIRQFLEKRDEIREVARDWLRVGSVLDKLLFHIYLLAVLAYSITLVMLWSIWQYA
Nature of the assay: Receptor binding, 5HT3. To be noted: CHO cells. How it is done:
as §1

In a further assay the target is T4, D2L (Homo sapiens, UniProt P14416).
T4 construct: host or cells: CHO cells
The assay is described as follows: Receptor binding, dopamine D2L. To be noted: for Ki: receptor expressed in CHO cells, read-out: Ki, D2L. How it is done: as §1, §2

In another assay the target is T5, D3 (Homo sapiens, UniProt P35462).
T5 construct: host or cells: CHO cells
Nature of the assay: Receptor binding, dopamine D3. To be noted: receptor expressed in CHO cells. How it is done:
as §1, §2

Another assay addresses T6, D4.2 (Homo sapiens, UniProt P21917, DEL265-296).
T6 construct: host or cells: CHO cells
T6 sequence (P21917 with tags, fused parts or gaps DEL265-296): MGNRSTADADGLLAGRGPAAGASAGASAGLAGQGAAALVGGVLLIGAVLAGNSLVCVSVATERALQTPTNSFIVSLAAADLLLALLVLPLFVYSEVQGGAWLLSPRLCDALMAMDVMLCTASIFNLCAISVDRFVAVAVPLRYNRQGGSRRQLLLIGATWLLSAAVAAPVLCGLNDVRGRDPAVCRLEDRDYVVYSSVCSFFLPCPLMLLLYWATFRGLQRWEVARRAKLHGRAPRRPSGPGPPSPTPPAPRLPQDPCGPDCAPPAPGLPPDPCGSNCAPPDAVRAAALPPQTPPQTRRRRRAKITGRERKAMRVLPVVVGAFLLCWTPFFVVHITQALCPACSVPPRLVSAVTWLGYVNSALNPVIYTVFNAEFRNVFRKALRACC
The assay is described as follows: Receptor binding, dopamine D4.2. As to conditions: CHO cells. How it is done: as §1

Assay [1] concerns rats. The assay is described as follows: Latent inhibition. As to conditions: treatment before each pre-exposure; 1.0 mg/kg d-AMPH before conditioning. It is filed as in vivo, rat. How it is done:
Sensitization: Animals were removed from the colony and taken to a holding room where they received either IP d-AMPH or saline every Monday, Wednesday, and Friday. Doses started at 1 mg/kg and increased 1 mg/kg each week over 5 weeks to 5 mg/kg. 25 days after the induction phase, behavioral sensitization was assessed over 3 days in locomotor chambers (plexiglass box, 40 cm×40 cm×40 cm) where speed and distance traveled were recorded using Noldus Ethovision XT (Noldus, Leesburg, Va.). The first day consisted of a 2 hr acclimation session, and prior to counter balanced injections of either 0.5 mg/kg d-AMPH or saline on days 2 and 3 animals were acclimated for 1 hr. Experiments were run in two separate cohorts of 30 animals to minimize the time between testing sensitization and LI.
Latent Inhibition: LI tests were performed in rats treated with 1.0 mg/kg acute d-AMPH, sensitized rats, and drug-naive rats. LI testing began 5 days post-challenge of the escalating dose regime. Animals in both conditions (chronic saline or sensitized) were randomly assigned to either non-pre-exposed (NPE) or pre-exposed (PE) groups. Testing took place over 3 consecutive days. […] Animals in the PE group received 50 presentations of the CS (10 sec duration) per day at a variable interval for the first two days. Animals in the NPE group were placed in the chamber for an equal time as the PE animals. Conditioning (COND) consisted of 100 CS-US pairings. Latency to cross into the other compartment and the number of total beam breaks were recorded. Drug-naïve animals receiving acute 1.0 mg/kg AMPH were injected IP 45 min before the COND trial.
The effects of the two individual enantiomers of govadine on latent inhibition (LI) were also tested as described in Example 12.

Assay [2] concerns rats. Nature of the assay: Temporal order recognition (radial arm maze). As to conditions: for Arm Entries / Distance Travelled: 1.0 mg/kg govadine isomers, 5.0 mg/kg clozapine; for temporal order effect: injected 15 min before test trial.
Procedure: The task exploits a rat's natural preference for novel locations. Each animal received 3 separate trials where access to two arms of an eight arm radial arm maze was granted. During the first trial, two arms were selected at random for exploration, and animals were allowed to explore these arms for 2 min After this time, they were taken off the maze and returned to their home cage. 1 hour later they were placed back on the maze and two new arms were randomly selected for 2 min of exploration.
Time spent in each arm (recent and old) was recorded as well as total distance traveled and the total number of arm entries in Noldus EthoVision 3.1 (Leesburg, Va.).

T4 sequence (P14416 whole entry): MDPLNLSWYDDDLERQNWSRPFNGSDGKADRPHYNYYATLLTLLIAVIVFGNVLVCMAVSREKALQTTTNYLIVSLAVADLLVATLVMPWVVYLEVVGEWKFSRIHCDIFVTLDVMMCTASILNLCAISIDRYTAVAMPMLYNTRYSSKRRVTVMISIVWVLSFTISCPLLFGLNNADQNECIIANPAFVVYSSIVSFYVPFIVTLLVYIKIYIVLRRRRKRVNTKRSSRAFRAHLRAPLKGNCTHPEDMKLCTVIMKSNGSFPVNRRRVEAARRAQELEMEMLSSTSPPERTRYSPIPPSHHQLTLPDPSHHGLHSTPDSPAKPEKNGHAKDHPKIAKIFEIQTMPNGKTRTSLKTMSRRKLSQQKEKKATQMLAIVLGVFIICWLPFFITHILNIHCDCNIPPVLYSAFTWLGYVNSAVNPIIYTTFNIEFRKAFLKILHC
T5 sequence (P35462 whole entry): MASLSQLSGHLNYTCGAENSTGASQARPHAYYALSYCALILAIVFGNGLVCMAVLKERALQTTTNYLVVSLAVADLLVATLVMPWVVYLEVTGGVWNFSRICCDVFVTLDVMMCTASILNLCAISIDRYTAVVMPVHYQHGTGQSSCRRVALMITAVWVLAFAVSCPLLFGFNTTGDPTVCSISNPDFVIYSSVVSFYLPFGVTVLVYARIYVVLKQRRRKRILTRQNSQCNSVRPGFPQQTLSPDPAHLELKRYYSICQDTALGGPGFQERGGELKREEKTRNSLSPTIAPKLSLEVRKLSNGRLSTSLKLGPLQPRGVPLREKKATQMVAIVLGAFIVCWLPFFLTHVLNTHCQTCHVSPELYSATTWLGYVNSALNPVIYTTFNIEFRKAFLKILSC
T1 sequence (P28223 whole entry, species assumed): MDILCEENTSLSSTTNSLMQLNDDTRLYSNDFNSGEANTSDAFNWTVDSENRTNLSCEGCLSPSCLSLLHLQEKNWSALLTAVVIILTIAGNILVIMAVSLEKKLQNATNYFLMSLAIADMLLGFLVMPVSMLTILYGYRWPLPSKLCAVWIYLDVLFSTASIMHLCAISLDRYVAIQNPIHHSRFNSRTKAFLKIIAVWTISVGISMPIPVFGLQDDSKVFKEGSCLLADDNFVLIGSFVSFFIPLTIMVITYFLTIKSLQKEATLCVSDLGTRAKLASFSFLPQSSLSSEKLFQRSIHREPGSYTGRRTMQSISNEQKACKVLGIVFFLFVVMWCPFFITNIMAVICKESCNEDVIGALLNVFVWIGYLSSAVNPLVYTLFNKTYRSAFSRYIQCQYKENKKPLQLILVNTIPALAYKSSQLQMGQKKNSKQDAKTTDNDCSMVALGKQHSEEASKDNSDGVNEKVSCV

As for `COc1cc2c(cc1O)CN1CCc3cc(OC)c(O)cc3[C@H]1C2` [d-govadine], the Ki came out at 11.8 µM on 5HT2A, 46.5 µM at 5HT2C, 1.34 µM at D2L and 0.606 µM on D3. In addition, the inhibition at 10 µM at 5HT3 is -8%; at D4.2, 20%. The “binding affinity to the D2 receptor” value at D2L is given as “weak affinity”. Moreover, the “latent inhibition in acute d-AMPH-treated animals” value with rats [1] is recorded as “restored LI”. In addition, the “Arm Entries” value in the assay with rats [2] (45 min. delay) is recorded as 14.8 ± 1.9; with rats [2] (4 hr. delay), 11 ± 1.1. Moreover, the “Distance Travelled” value in the assay on rats [2] (45 min. delay) was determined as 2433 ± 363; with rats [2] (4 hr. delay), 2091 ± 114. For the same molecule, the temporal order effect result is given as “abolished” in the assay on rats [2] (45 min delay) and “restored temporal order recognition” with rats [2] (4 hr delay).

Take `COc1cc2c(cc1O)CN1CCc3cc(OC)c(O)cc3[C@@H]1C2` [l-govadine]: the Ki on 5HT2A was 11.1 µM; on 5HT2C, 45.2 µM; on D2L it was 0.165 µM; on D3, 0.548 µM. The inhibition at 10 µM on 5HT3 came to 5%; on D4.2, 21%. Further, the “binding affinity to the D2 receptor” value on D2L is “strong affinity”. Moreover, the “latent inhibition in acute d-AMPH-treated animals” value in the assay with rats [1] is recorded as “restored LI”. The figures for the “Arm Entries” value in the assay with rats [2] (45 min. delay) and in the assay on rats [2] (4 hr. delay) were 3.67 ± 1.9 and 3.5 ± 0.9, respectively. Besides, the “Distance Travelled” value in the assay with rats [2] (45 min. delay) is listed as 587.7 ± 109; in the assay on rats [2] (4 hr. delay) it was 824 ± 135. Besides, the temporal order effect entry with rats [2] (45 min delay) was “abolished”; in the assay with rats [2] (4 hr delay), “no temporal order effect”.
